# Assay results from BindingDB's records for doi:10.1016/j.bioorg.2017.01.007 (Panjab University, 2017).
# Molecular target: T1, Tyrosine-protein phosphatase non-receptor type 1 (Homo sapiens, UniProt P18031)
# T1 sequence (P18031 whole entry): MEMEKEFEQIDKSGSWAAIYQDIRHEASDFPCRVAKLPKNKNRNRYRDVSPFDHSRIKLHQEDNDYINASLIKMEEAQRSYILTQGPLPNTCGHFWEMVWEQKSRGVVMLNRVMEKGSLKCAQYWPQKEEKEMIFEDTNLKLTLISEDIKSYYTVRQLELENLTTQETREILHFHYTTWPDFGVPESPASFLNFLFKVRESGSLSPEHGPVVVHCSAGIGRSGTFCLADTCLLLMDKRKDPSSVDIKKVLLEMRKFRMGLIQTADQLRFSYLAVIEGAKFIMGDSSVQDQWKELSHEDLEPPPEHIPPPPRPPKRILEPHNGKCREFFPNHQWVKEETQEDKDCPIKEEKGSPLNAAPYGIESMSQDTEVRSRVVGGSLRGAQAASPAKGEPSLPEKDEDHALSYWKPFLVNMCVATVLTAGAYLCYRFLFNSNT
# Experiment: In Vitro PTP1B Inhibition Assay
# Description: 10 mM stock solution (in assay buffer containing 1% DMSO) of the test compounds were prepared. Taking suitable aliquots from this stock solution, five different concentrations were made by dilutions. […] A 96 well microtiter plate was used for carrying out the assay using 10 mM DMSO as control. The reaction was carried out in 96 well, flatbottomed microtiter plates at 10 mM concentration using DMSO as control.
row,SMILES,IC50
1,"COc1cc(/C=C2\SC(=O)NC2=O)ccc1OS(=O)(=O)c1c(C)cc(C)cc1C [(Z)-4-((2,4-dioxothiazolidin-5-ylidene)methyl)-2-methoxyphenyl-2,4,6-trimethylbenzenesulphonate (15)]",26.9 µM
2,"COc1cc(/C=C2\SC(=O)NC2=O)ccc1OS(=O)(=O)Cc1ccccc1 [(Z)-4-((2,4-dioxothiazolidin-5-ylidene)methyl)-2-methoxyphenyl phenylmethanesulfonate (20)]",59.9 µM
3,"COc1ccc(S(=O)(=O)Oc2ccc(/C=C3\SC(=O)NC3=O)cc2OC)cc1 [(Z)-4-((2,4-dioxothiazolidin-5-ylidene)methyl)-2-methoxyphenyl-4-methoxybenzene sulfonate (14)]",28.2 µM
4,"COc1cc(/C=C2\SC(=O)NC2=O)ccc1OS(=O)(=O)c1ccc(Cl)cc1 [(Z)-4-((2,4-dioxothiazolidin-5-ylidene)methyl)-2-methoxyphenyl-4-chlorobenzenesulfonate (17)]",25.3 µM
5,"COc1cc(/C=C2\SC(=O)NC2=O)ccc1OS(=O)(=O)c1ccc2ccccc2c1 [(Z)-4-((2,4-dioxothiazolidin-5-ylidene)methyl)-2-methoxyphenylnaphthalene-2-sulfonate (21)]",61.4 µM
6,"COc1cc(/C=C2\SC(=O)NC2=O)ccc1OS(=O)(=O)c1ccccc1[N+](=O)[O-] [(Z)-4-((2,4-dioxothiazolidin-5-ylidene)methyl)-2-methoxyphenyl-2-nitrobenzenesulfonate (19)]",50.4 µM

# Now those with a lower IC50, led by results:
row,IC50,SMILES
1,21.8 µM,"COc1cc(/C=C2\SC(=O)NC2=O)ccc1OS(=O)(=O)c1ccc(Br)cc1 [(Z)-4-((2,4-dioxothiazolidin-5-ylidene)methyl)-2-methoxyphenyl-4-bromobenzenesulfonate (18)]"
2,19 µM,"COc1cc(/C=C2\SC(=O)NC2=O)ccc1OS(=O)(=O)c1ccc(C)cc1 [(Z)-4-((2,4-dioxothiazolidin-5-ylidene)methyl)-2-methoxyphenyl-4-methylbenzenesulfonate (12)]"
3,8.73 µM,"COc1cc(/C=C2\SC(=O)NC2=O)ccc1OS(C)(=O)=O [(Z)-4-((2,4-dioxothiazolidin-5-ylidene)methyl)-2-methoxyphenylmethane sulfonate (16)]"
4,7.31 µM,"COc1cc(/C=C2\SC(=O)NC2=O)ccc1OS(=O)(=O)c1ccccc1 [(Z)-4-((2,4-dioxothiazolidin-5-ylidene)methyl)-2-methoxyphenylbenzenesulfonate (13)]"
